Measured values as given in ChEMBL document CHEMBL4414576, “Recent advancements in mechanistic studies and structure activity relationship of FoF1 ATP synthase inhibitor as antimicrobial agent” (Eur J Med Chem, 2019).
In brackets after ≈: the same amount, converted by molar mass.

What was measured:
[1] = system: Escherichia coli; experiment: Inhibition of F1F0-ATP synthase in Escherichia coli relative to control; parameters: concentration or dose not given beside the values; conditions: concentration not given here
[2] = system: Streptococcus pneumoniae; experiment: Antimicrobial activity against Streptococcus pneumoniae ATCC 49619; assay type: functional
[3] = system: Staphylococcus aureus; experiment: Antimicrobial activity against Staphylococcus aureus ATCC 29213; assay type: functional
[4] = molecular target: ATP synthase; experiment: Inhibition of ATP synthase in Mycobacterium tuberculosis H37Rv; assay type: protein-complex assay
[5] = system: Mycobacterium tuberculosis; experiment: Antimicrobial activity against Mycobacterium tuberculosis H37Rv after 5 days; assay type: functional
[6] = system: Escherichia coli; experiment: Inhibition of F1F0-ATP synthase in Escherichia coli after 60 mins relative to control; parameters: concentration or dose not given beside the values
[7] = Inhibition of F1F0-ATP synthase in Escherichia coli after 60 mins
[8] = Inhibition of ATP synthase in Escherichia coli
[9] = system: Escherichia coli; experiment: Inhibition of ATP synthase in Escherichia coli relative to control; conditions: concentration not given here
[10] = system: Mycobacterium tuberculosis; experiment: Antimicrobial activity against Mycobacterium tuberculosis H37Rv; assay type: functional, organism-based
[11] = Selectivity index, ratio of CC50 for African green monkey Vero cells to IC50 of Mycobacterium tuberculosis H37Rv; assay type: toxicity; conditions: read-out: Ratio IC50
[12] = system: Mycobacterium tuberculosis H37Rv; experiment: Inhibition of F0F1-ATP synthase in Mycobacterium tuberculosis H37Rv at […] using succinate as substrate preincubated for 10 mins followed by substrate addition by luciferase reporter gene assay relative to control
[13] = Inhibition of F1F0-ATP synthase in Escherichia coli
[14] = Inhibition of ATP synthase isolates from rat brain cells using succinate as substrate preincubated for 5 mins followed by substrate addition
[15] = species: Mus musculus; experiment: Inhibition of mitochondrial ATP synthase isolated from Swiss albino mouse liver at 100 uM using succinate as substrate after 1 hr relative to control
[16] = Selectivity index, ratio of IC50 for ATP synthase in Mycobacterium tuberculosis H37Rv to IC50 for mitochondrial ATP synthase isolated from swiss albino mouse liver
[17] = Inhibition of ATP synthase in Mycobacterium smegmatis; parameters: species or system Mycolicibacterium smegmatis
[18] = molecular target: ATP synthase (Mycobacterium tuberculosis) (UniProt P9WPU9+P9WPU5+P9WPU7+P9WPV5+P9WPS1+P9WPV1+P9WPV7+P9WPV3); experiment: Inhibition of ATP synthase in Mycobacterium tuberculosis H37Rv whole cell lysate after 18 hrs at 10X of MIC relative to control; assay type: subcellular
[19] = Selectivity index, ratio of CC50 for human HepG2 cells to MIC of Mycobacterium tuberculosis H37Rv; assay type: toxicity

For `Oc1ccc(O)cc1`, the inhibition [1] was 80%.

In the case of `COc1nc2ccc(Br)cc2cc1[C@H](c1cc(F)ccc1F)[C@](O)(CCCCN(C)C)c1ccccc1`, the MIC [2] is reported as 0.25 µg/mL (≈ 0.439 µM) and the MIC [3] is reported as 1 µg/mL (≈ 1.76 µM).

`Oc1ccccc1O` showed an inhibition [1] of 40%.

Compound `CCN(CC)Cc1cc(N(c2cc(C)nc3cc(Cl)ccc23)S(=O)(=O)c2ccc(Cl)cc2Cl)ccc1O` has an IC50 [4] of 0.36 to 1.83 µM and an MIC [5] of 3.12 µg/mL (≈ 5.39 µM).

Compound `Oc1cc(O)c2c(c1)OC(c1ccc(O)c(O)c1)C(O)C2` (centres undefined) [CATECHIN] has an inhibition [6] of 100% and an IC50 [7] of 4000 µM.

`COc1nc2ccc(Br)cc2cc1[C@H](c1ccccc1)[C@](O)(CCCCN1CCN(C)CC1)CCc1ccccc1` showed an MIC [2] of 0.25 µg/mL (≈ 0.405 µM) and an MIC [3] of 1 µg/mL (≈ 1.62 µM).

With `NC12CC3CC(CC(C3)C1)C2` [AMANTADINE] the inhibition [6] was 100% and the IC50 [7] was 2500 µM.

`COc1cc(C2Oc3cc([C@H]4Oc5cc(O)cc(O)c5C(=O)[C@@H]4O)ccc3OC2CO)ccc1O` (some centres undefined) [SILIBININ] gave an inhibition [6] of 100% and an IC50 [7] of 340 µM.

Work on `O=c1c(-c2ccc(O)cc2)coc2cc(O)ccc12` yielded an inhibition [6] of 0 to 20%.

For `O=c1c(O)c(-c2ccc(O)c(O)c2)oc2cc(O)cc(O)c12` [QUERCETIN], the IC50 [8] was 33 µM and the inhibition [9] was 80%.

Work on `O=C(CNC1CCCC1)N(c1ccccc1)c1ccccc1` yielded an IC50 [10] of 10.4 µM and a selectivity ratio [11] of 24.

With `O=c1c(O)c(-c2ccc(O)cc2O)oc2cc(O)cc(O)c12` [MORIN] the inhibition [6] was 100% and the IC50 [7] was 70 µM.

`COc1ccccc1N1CCN(CC(O)COC(c2ccccc2)c2cccc3ccccc23)CC1` (centres undefined) gave an inhibition [12] of 90%.

Compound `Oc1cccc(/C=N/c2ccccc2O)c1` has an inhibition [1] of 85% and an IC50 [13] of 9 µM.

With `O=C(O[C@@H]1Cc2c(O)cc(O)cc2O[C@@H]1c1cc(O)c(O)c(O)c1)c1cc(O)c(O)c(O)c1` [EPIGALOCATECHIN GALLATE] the IC50 [14] was 17 µM.

`O=c1c(-c2ccc(O)cc2)coc2cc(O)cc(O)c12` showed an inhibition [6] of 40 to 60%.

Compound `COc1ccc([C@@H]2CC(=O)c3c(O)cc(O[C@@H]4O[C@H](CO[C@@H]5O[C@@H](C)[C@H](O)[C@@H](O)[C@H]5O)[C@@H](O)[C@H](O)[C@H]4O)cc3O2)cc1O` has an inhibition [6] of 40 to 60%.

`CC[C@H](C)[C@H](NC(=O)CN)C(=O)NCC(=O)N[C@@H](C)C(=O)N[C@H](C(=O)N[C@@H](CC(C)C)C(=O)N[C@@H](CCCCN)C(=O)N[C@H](C(=O)N[C@@H](CC(C)C)C(=O)N[C@H](C(=O)N[C@H](C(=O)NCC(=O)N[C@@H](CC(C)C)C(=O)N1CCC[C@H]1C(=O)N[C@@H](C)C(=O)N[C@@H](CC(C)C)C(=O)N[C@H](C(=O)N[C@@H](CO)C(=O)N[C@@H](Cc1c[nH]c2ccccc12)C(=O)N[C@H](C(=O)N[C@@H](CCCCN)C(=O)N[C@@H](CCCNC(=N)N)C(=O)N[C@@H](CCCCN)C(=O)N[C@@H](CCCNC(=N)N)C(=O)N[C@@H](CCC(N)=O)C(=O)N[C@@H](CCC(N)=O)C(N)=O)[C@@H](C)CC)[C@@H](C)CC)[C@@H](C)O)[C@@H](C)O)C(C)C)C(C)C` gave an inhibition [1] of 78%.

Work on `OC(COC(c1ccccc1)c1cccc2ccccc12)CN1CCN(C(c2ccccc2)c2ccccc2)CC1` (centres undefined) yielded an inhibition [12] of 98%.

`Oc1cc2cc3ccccc3cc2cc1O` gave an inhibition [1] of 22%.

`O=c1c(O)c(-c2ccccc2)oc2cc(O)cc(O)c12` showed an inhibition [6] of 0 to 20%.

Work on `CCN(CC)Cc1cc(N(c2cc(C)nc3cc(Cl)ccc23)S(=O)(=O)c2cccc(Cl)c2Cl)ccc1O` yielded an IC50 [4] of 0.36 to 1.83 µM and an MIC [5] of 3.12 µg/mL (≈ 5.39 µM).

With `O=[N+]([O-])c1cc(O)ccc1/N=C/c1ccccc1O` the inhibition [1] was 100% and the IC50 [13] was 6 µM.

`O=c1cc(-c2ccccc2)oc2cc(O)c(O)c(O)c12` [BAICALEIN] gave an inhibition [6] of 100% and an IC50 [7] of 290 µM.

With `O=c1c(O)c(-c2ccc(O)cc2)oc2cc(O)cc(O)c12` the inhibition [6] was 40 to 60%.

Work on `COc1cc(/C=C/C(=O)CC(=O)/C=C/c2ccc(O)c(OC)c2)ccc1O` [CURCUMIN] yielded an IC50 [14] of 45 µM.

`O=c1cc(-c2ccc(O)cc2)oc2cc(O)cc(O)c12` showed an inhibition [6] of 40 to 60%.

Work on `CCN(CC)Cc1cc(N(c2cc(C)nc3cc(Cl)ccc23)S(=O)(=O)c2ccc([N+](=O)[O-])cc2)ccc1O` yielded an IC50 [4] of 0.36 to 1.83 µM and an MIC [5] of 6.25 µg/mL (≈ 11.3 µM).

With `COc1ccc(/C=C2/S/C(=N/N=C/c3ccccc3O)NC2=O)cc1` the inhibition [15] was 32%, the MIC [10] was 0.5 µg/mL (≈ 1.41 µM) and the Ratio IC50 [16] was 51. The IC50 [17] was 0.312 µM, the inhibition [18] was 15 to 30% and the selectivity ratio [19] was 80.

`Oc1cc2cc3ccccc3cc2c(O)c1O` showed an inhibition [1] of 30%.
